The values that follow come from US6911444B2, “Non-steroidal IL-5 inhibitors, processes and intermediates for their preparation and pharmaceutical compositions comprising said inhibitors” (Janssen Pharmaceutics N.V., priority 1999, dated 2005).

Usually melting point stands for the temperature, or range, at which the solid turns liquid.

SMILES strings stand for the structures.

As for `CC(C)(c1nc(-c2ccccc2)c(C(=O)SC2CCOC2=O)s1)c1c(Cl)cc(-n2ncc(=O)[nH]c2=O)cc1Cl` (centres unmarked) [Compound 4], the melting point turned out to be 212 °C.
For `CC(C)(c1nc(-c2ccccc2)c(C(=O)OCCN2CCN(S(=O)(=O)N3CCCC3)CC2)s1)c1c(Cl)cc(-n2ncc(=O)[nH]c2=O)cc1Cl` [Compound 146], the melting point came to 196 °C.
For the compound `Cc1oc(=O)oc1COC(=O)Cc1sc(C(C)(C)c2c(Cl)cc(-n3ncc(=O)[nH]c3=O)cc2Cl)nc1-c1ccccc1` [Compound 72], the melting point was 149 °C.
As to `CN(C)S(=O)(=O)N1CCN(CCO)CC1` [Compound 83], the melting point was 186 °C.
For the compound `CN(C)S(=O)(=O)NCCOC(=O)c1sc(C(C)(C)c2c(Cl)cc(-n3ncc(=O)[nH]c3=O)cc2Cl)nc1-c1ccccc1` [Compound 76], the melting point amounted to 150 °C.
Turning to `COCCOC(=O)OC(C)OC(=O)c1sc(C(C)(C)c2c(Cl)cc(-n3ncc(=O)[nH]c3=O)cc2Cl)nc1-c1ccccc1` (centres unmarked) [Compound 99], the melting point came out at 88 °C.
As for `C=CCOC(=O)c1sc(C(C)(C)c2c(Cl)cc(-n3ncc(=O)[nH]c3=O)cc2Cl)nc1-c1ccccc1` [Compound 87], the figure is 172 °C.
`CC1(C)OCC(COC(=O)c2sc(C(C)(C)c3c(Cl)cc(-n4ncc(=O)[nH]c4=O)cc3Cl)nc2-c2ccccc2)O1` (centres unmarked) [Compound 92]: the melting point is 163 °C.
As for `CC(C)(c1nc(-c2ccccc2)c(C(=O)OC2CCCC(O)C2)s1)c1c(Cl)cc(-n2ncc(=O)[nH]c2=O)cc1Cl` (centres unmarked) [Compound 140], the figure is 175 °C.
In the case of `CC(C)(c1nc(-c2ccccc2)c(C(=O)OCC(F)(F)F)s1)c1c(Cl)cc(-n2ncc(=O)[nH]c2=O)cc1Cl` [Compound 78], the melting point worked out at 180 °C.
Then `COC(=O)C(CCCO)OC(=O)c1sc(C(C)(C)c2c(Cl)cc(-n3ncc(=O)[nH]c3=O)cc2Cl)nc1-c1ccccc1` (centres unmarked) [Compound 121], with 100 °C; and `CN1CCN(CCOC(=O)c2sc(C(C)(C)c3c(Cl)cc(-n4ncc(=O)[nH]c4=O)cc3Cl)nc2-c2ccccc2)S1(=O)=O` [Compound 128], with 112 °C; and `CC(C)(c1nc(-c2ccccc2)c(C(=O)OC2CCOC2=O)s1)c1c(Cl)cc(-n2ncc(=O)[nH]c2=O)cc1Cl` (centres unmarked) [Compound 3], with 208 °C.
For the compound `CCOC(=O)C(Cl)(Cl)c1ccccc1-c1nc(C(C)(C)c2c(Cl)cc(-n3ncc(=O)[nH]c3=O)cc2Cl)no1` [Compound 6], the melting point was 157 °C.
As for `Cc1oc(=O)oc1CSC(=O)c1sc(C(C)(C)c2c(Cl)cc(-n3ncc(=O)[nH]c3=O)cc2Cl)nc1-c1ccccc1` [Compound 71], the figure is 97 °C; as for `CC(C)(c1nc(-c2cccs2)c(CC(=O)OC2CCOC2=O)s1)c1c(Cl)cc(-n2ncc(=O)[nH]c2=O)cc1Cl` (centres unmarked) [Compound 5], 110 °C; as for `CC(C)(c1nc(-c2ccccc2)c(CC(=O)OC2CCOC2=O)s1)c1c(Cl)cc(-n2ncc(=O)[nH]c2=O)cc1Cl` (centres unmarked) [Compound 1], 72 °C.
`C#CCOC(=O)c1sc(C(C)(C)c2c(Cl)cc(-n3ncc(=O)[nH]c3=O)cc2Cl)nc1-c1ccccc1` [Compound 88] showed a melting point of 180 °C.
As for `CCCC(=O)OCOC(=O)c1sc(C(C)(C)c2c(Cl)cc(-n3ncc(=O)[nH]c3=O)cc2Cl)nc1-c1ccccc1` [Compound 108], the melting point was 146 °C.
For the compound `CN(C)S(=O)(=O)N1CCN(CCOC(=O)c2sc(C(C)(C)c3c(Cl)cc(-n4ncc(=O)[nH]c4=O)cc3Cl)nc2-c2ccccc2)CC1` [Compound 84], the melting point was found to be 220 °C.
As for `CC(C)(c1nc(-c2ccccc2)c(C(=O)OCC2COC(=S)O2)s1)c1c(Cl)cc(-n2ncc(=O)[nH]c2=O)cc1Cl` (centres unmarked) [Compound 111], the melting point amounted to 130 °C.
As for `CC(C)(c1nc(-c2ccccc2)c(C(=O)OC2COC(=O)C2O)s1)c1c(Cl)cc(-n2ncc(=O)[nH]c2=O)cc1Cl` (centres unmarked) [Compound 131], the figure is 144 °C; as for `CC(C)(c1nc(-c2ccccc2)c(C(=O)OCOC(=O)C2CCCCC2)s1)c1c(Cl)cc(-n2ncc(=O)[nH]c2=O)cc1Cl` [Compound 125], 130 °C.
`CCOC(=O)CCc1sc(C(C)(C)c2c(Cl)cc(-n3ncc(=O)[nH]c3=O)cc2Cl)nc1-c1ccccc1` [Compound 80] came in with a melting point of 155 °C.
With `CCCCCCCCCCCCCCCOC(=O)Cc1sc(C(C)(C)c2c(Cl)cc(-n3ncc(=O)[nH]c3=O)cc2Cl)nc1-c1ccccc1` [Compound 2], the melting point is 80 °C.
Compound `CC(C)(c1nc(-c2ccccc2)c(CCC(=O)OC2CCOC2=O)s1)c1c(Cl)cc(-n2ncc(=O)[nH]c2=O)cc1Cl` (centres unmarked) [Compound 81] gave a melting point of 190 °C.
The compound `COCCOCCOC(=O)c1sc(C(C)(C)c2c(Cl)cc(-n3ncc(=O)[nH]c3=O)cc2Cl)nc1-c1ccccc1` [Compound 82] had a melting point of 151 °C.
The compound `CC(C)(c1nc(-c2ccccc2)c(C(=O)OCCNS(=O)(=O)N2CCCCC2)s1)c1c(Cl)cc(-n2ncc(=O)[nH]c2=O)cc1Cl` [Compound 77] returned a melting point of 126 °C.
For the compound `CC(C)(c1nc(-c2ccccc2)c(C(=O)OCCN2CCN(S(N)(=O)=O)CC2)s1)c1c(Cl)cc(-n2ncc(=O)[nH]c2=O)cc1Cl` [Compound 79], the melting point amounted to 133 °C.
As for `CCOP(=O)(COC(=O)c1sc(C(C)(C)c2c(Cl)cc(-n3ncc(=O)[nH]c3=O)cc2Cl)nc1-c1ccccc1)OCC`, the figure is 88 °C; as for `CON(C)C(=O)c1sc(C(C)(C)c2c(Cl)cc(-n3ncc(=O)[nH]c3=O)cc2Cl)nc1-c1ccccc1` [Compound 89], 112 °C.
Consider `C[S+]([O-])CSC(=O)Cc1sc(C(C)(C)c2c(Cl)cc(-n3ncc(=O)[nH]c3=O)cc2Cl)nc1-c1ccccc1` (centres unmarked) [Compound 104], for which the melting point amounted to 154 °C.
Compound `CC(C)(c1nc(-c2ccccc2)c(CSC2CCOC2=O)s1)c1c(Cl)cc(-n2ncc(=O)[nH]c2=O)cc1Cl` (centres unmarked) [Compound 116] gave a melting point of 100 °C.
The compound `Cc1nc(C(C)(C)c2c(Cl)cc(-n3ncc(=O)[nH]c3=O)cc2Cl)sc1C(=O)c1ccccc1` [Compound 107] showed a melting point of 174 °C.
In turn, `CC(C)(c1nc(-c2ccccc2)c(C(=O)OC2CCCC(OC(=O)c3sc(C(C)(C)c4c(Cl)cc(-n5ncc(=O)[nH]c5=O)cc4Cl)nc3-c3ccccc3)C2)s1)c1c(Cl)cc(-n2ncc(=O)[nH]c2=O)cc1Cl` (centres unmarked) [Compound 139] gave a melting point of 180 °C.
With `CC(OC(=O)c1sc(C(C)(C)c2c(Cl)cc(-n3ncc(=O)[nH]c3=O)cc2Cl)nc1-c1ccccc1)OC(=O)C(c1ccccc1)C1CCCC1` (centres unmarked) [Compound 141], the melting point is 110 °C.
`CC(OC(=O)OCCS(C)(=O)=O)OC(=O)c1sc(C(C)(C)c2c(Cl)cc(-n3ncc(=O)[nH]c3=O)cc2Cl)nc1-c1ccccc1` (centres unmarked) [Compound 110] registered a melting point of 104 °C.
`CC(=O)c1sc(C(C)(C)c2c(Cl)cc(-n3ncc(=O)[nH]c3=O)cc2Cl)nc1-c1ccccc1` [Compound 105] had a melting point of 212 °C.
